Key:
Type in all cases: binding
FZD6 = target: T1, FZD6 (Homo sapiens, UniProt O60353); assay: NanoBRET screen HiBiT-FZD6 in HEK293; conditions: FZD6
T1 construct: purchased Promega (in-house HiBiT-GPCR construct library, NanoBRET)
T1 sequence (O60353 19-706): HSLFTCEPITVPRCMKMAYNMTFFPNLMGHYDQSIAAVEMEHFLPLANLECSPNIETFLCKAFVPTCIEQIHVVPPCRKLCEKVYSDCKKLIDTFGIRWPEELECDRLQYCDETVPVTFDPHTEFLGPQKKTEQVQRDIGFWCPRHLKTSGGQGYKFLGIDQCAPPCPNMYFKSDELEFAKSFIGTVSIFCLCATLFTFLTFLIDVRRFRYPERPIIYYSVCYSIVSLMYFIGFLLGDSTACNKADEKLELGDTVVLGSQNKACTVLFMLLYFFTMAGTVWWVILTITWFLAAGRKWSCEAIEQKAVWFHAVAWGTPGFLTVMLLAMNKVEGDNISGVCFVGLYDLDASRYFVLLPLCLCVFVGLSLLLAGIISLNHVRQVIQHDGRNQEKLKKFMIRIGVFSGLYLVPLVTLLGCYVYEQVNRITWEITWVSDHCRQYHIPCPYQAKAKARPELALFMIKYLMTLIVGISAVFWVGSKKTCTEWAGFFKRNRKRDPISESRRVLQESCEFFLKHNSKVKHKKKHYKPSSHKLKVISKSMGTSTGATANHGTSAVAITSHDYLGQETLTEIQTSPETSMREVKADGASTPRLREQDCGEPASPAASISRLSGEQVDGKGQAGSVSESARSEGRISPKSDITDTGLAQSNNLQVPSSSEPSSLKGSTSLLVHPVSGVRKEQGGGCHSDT
Description: (§1) Each tracer candidate was screened across the entire library of HiBiT-GPCR constructs using NanoBRET as the detection modality. As depicted in Figure 4A, the specificity of interactions was evaluated through decrease in BRET due to competitive displacement of a bound tracer by excess parental compound. Each tracer was analyzed for binding to each HiBiT-GPCR fusion in the absence and in the presence of competing parental compound. Briefly, HEK293 cells were transfected with HiBiT-GPCR constructs diluted into promoterless DNA to reduce expression and maximize translocation to the cell surface. Each tracer candidate was then screened at concentrations of 1 μM and 0.1 μM across cells expressing these fusions. Cells were treated for 1.5 h with tracer either alone or in the presence of 20 μM competing parental compound (i.e., control). BRET was measured upon addition of purified LgBiT and subsequent complementation with HiBiT genetically fused to a GPCR. The specificity of interactions was assessed through a decrease in BRET signal due to competitive displacement of the bound tracer. To further gauge the robustness of these interactions, the fold response over the control (i.e., BRETtracer/BRETcontrol) was calculated. We chose a 1.5-fold response, which translates to ≥7-fold signal over noise as the minimal threshold required to score an interaction as positive. […]. Below we highlight the screening results obtained for our exemplary fluorescent tracers based on Clozapine, Amitriptyline and AZD1283.
(§2) HiBiT-GPCR DNA constructs were diluted in 10 mM Tris pH 8 to a final concentration of 0.01 μg/μL, arrayed in 96-well plates and stored at −20 °C. For transfection, HEK293 cells were suspended in Opti-MEM (without phenol red) supplemented with 2% fetal bovine serum (Seradigm) and 100 units/mL penicillin–streptomycin (Gibco) at a final concentration of 220,000 cells/mL and dispensed into white 96-well plates at 90 μL/well. Subsequent transfections and screens were carried using an Agilent Bravo Automated Liquid Handling Platform. First, the 96-well HiBiT DNA arrays were diluted 25-fold in Opti-MEM (without serum or phenol red) to a final concentration of 0.0004 μg/μL and 20 μL of the diluted DNAs were transferred into new 96-well plates. Next, promoterless carrier DNA (1 μg/μL) was diluted 25-fold (0.04 μg/μL) and then dispensed into the diluted arrays at 20 μL/well. Following brief mixing, Viafect transfection reagent (Promega) diluted 16-fold into Opti-MEM was dispensed into the plates at 40 μL/well. After mixing by pipetting, plates were incubated for 10 min on the pipetting station deck. The DNA-transfection reagent complexes were then added to plates containing cells. To facilitate the screen, 10 μL of DNA-transfection reagent complexes were added in duplicates to the top 4 and bottom 4 rows, resulting in two identical 48-well arrays per plate. Plates with transfected cells were incubated for 18–20 h at 37 °C/5% CO2. A screen of each tracer across the entire library using two different concentrations requires duplicate plates of transfected cells. Depending on the number of tracers being screened, transfections can be scaled up using the same ratios. The next day, for each tracer, four 20× screening solutions in tracer dilution buffer (Promega) were prepared: two duplicates at final concentration of 20 μM and two duplicates at a final concentration of 2 μM. A competing unmodified compound was added to one of each duplicate at a final concentration of 400 μM. The four resulting solutions were diluted 4-fold in Opti-MEM without serum or phenol red to generate 5× solutions (5 µM and 0.5 µM tracer +/− 100 μM competing compound). To screen the library, a BioTek MultiFlo FX liquid dispenser was used to dispense 22.5 µL of tracer solution to the top 4 rows and 22.5 µL tracer + competing compound solution to the 4 bottom rows. Plates were briefly mixed on an orbital shaker and incubated for 1.5 h at room temperature. […]

P2RY13 = target: T2, P2RY13 (Homo sapiens, UniProt Q9BPV8); assay: NanoBRET screen HiBiT-P2RY13 in HEK293; conditions: P2RY13
T2 construct: purchased Promega (in-house HiBiT-GPCR construct library, NanoBRET)
T2 sequence (Q9BPV8 1-354): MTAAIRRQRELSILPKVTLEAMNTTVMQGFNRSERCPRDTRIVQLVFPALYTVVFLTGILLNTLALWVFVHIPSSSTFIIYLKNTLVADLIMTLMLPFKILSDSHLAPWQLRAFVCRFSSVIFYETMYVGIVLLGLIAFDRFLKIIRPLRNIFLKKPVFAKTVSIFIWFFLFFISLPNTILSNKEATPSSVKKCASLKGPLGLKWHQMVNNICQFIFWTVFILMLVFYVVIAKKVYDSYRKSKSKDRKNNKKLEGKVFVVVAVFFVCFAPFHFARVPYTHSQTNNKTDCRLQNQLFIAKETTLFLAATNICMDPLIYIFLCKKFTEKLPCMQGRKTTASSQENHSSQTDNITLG
Description: as §1, §2

GRM5 = target: T3, GRM5 (Homo sapiens, UniProt P41594); assay: NanoBRET screen HiBiT-GRM5 in HEK293; conditions: GRM5
T3 construct: purchased Promega (in-house HiBiT-GPCR construct library, NanoBRET)
Description: as §1, §2

HTR1E = target: T4, HTR1E (Homo sapiens, UniProt P28566); assay: NanoBRET screen HiBiT-HTR1E in HEK293; conditions: HTR1E
T4 construct: purchased Promega (in-house HiBiT-GPCR construct library, NanoBRET)
Description: as §1, §2

T3 sequence (P41594 21-1212): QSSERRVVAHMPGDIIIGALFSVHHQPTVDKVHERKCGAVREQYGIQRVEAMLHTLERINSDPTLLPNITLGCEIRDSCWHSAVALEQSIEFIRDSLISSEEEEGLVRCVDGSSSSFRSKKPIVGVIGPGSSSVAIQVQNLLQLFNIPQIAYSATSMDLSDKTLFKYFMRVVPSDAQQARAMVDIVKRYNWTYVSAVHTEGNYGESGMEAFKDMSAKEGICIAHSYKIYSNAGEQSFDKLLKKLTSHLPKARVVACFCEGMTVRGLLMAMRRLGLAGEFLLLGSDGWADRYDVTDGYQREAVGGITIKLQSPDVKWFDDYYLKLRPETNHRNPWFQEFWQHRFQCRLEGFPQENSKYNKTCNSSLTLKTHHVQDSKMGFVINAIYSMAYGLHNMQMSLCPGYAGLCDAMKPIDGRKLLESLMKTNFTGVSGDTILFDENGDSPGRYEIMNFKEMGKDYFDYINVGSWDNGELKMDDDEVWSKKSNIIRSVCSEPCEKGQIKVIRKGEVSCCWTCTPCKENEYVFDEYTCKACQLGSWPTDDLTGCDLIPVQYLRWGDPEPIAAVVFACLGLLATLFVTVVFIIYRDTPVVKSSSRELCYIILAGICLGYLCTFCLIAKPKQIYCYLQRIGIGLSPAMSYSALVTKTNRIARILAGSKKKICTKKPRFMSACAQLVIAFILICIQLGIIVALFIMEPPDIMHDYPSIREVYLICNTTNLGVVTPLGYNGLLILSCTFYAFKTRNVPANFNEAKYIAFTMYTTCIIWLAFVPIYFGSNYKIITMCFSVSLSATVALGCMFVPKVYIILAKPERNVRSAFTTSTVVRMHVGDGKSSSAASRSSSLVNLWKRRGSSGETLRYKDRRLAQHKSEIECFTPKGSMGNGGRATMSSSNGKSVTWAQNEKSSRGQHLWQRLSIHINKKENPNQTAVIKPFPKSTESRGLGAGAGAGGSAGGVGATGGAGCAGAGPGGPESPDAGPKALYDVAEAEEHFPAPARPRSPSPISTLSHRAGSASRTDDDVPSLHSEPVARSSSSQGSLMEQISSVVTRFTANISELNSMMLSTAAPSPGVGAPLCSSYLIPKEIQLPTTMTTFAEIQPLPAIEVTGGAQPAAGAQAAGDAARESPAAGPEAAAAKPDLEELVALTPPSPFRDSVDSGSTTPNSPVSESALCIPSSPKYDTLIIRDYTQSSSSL
T4 sequence (P28566 whole entry): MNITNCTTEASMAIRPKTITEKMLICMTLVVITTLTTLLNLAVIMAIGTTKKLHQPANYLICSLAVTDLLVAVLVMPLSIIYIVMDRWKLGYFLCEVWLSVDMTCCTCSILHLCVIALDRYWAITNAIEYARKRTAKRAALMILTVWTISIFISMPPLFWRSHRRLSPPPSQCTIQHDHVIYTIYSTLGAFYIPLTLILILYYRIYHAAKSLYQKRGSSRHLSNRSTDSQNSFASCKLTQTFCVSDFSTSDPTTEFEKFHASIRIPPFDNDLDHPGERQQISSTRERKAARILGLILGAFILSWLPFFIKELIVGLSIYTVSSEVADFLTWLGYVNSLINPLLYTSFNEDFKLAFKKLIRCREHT

SMILES | NanoBRET Fold Response (FZD6; tracer 0.1μM) | NanoBRET Fold Response (FZD6; tracer 1μM) | NanoBRET Fold Response (P2RY13; tracer 0.1μM) | NanoBRET Fold Response (P2RY13; tracer 1μM) | NanoBRET Fold Response (GRM5; tracer 0.1μM) | NanoBRET Fold Response (GRM5; tracer 1μM) | NanoBRET Fold Response (HTR1E; tracer 0.1μM) | NanoBRET Fold Response (HTR1E; tracer 1μM) | NanoBRET Fold Response (FZD6; 0.1μM) | NanoBRET Fold Response (FZD6; 1μM) | NanoBRET Fold Response (P2RY13; 0.1μM) | NanoBRET Fold Response (P2RY13; 1μM) | NanoBRET Fold Response (GRM5; 0.1μM) | NanoBRET Fold Response (GRM5; 1μM) | NanoBRET Fold Response (HTR1E; 0.1μM) | NanoBRET Fold Response (HTR1E; 1μM)
COc1ccccc1N1CCN(CCCCN2C(=O)c3ccc(CNC(=O)CCOCCOCCOCCOCCNC(=O)CCc4ccc5n4[B-](F)(F)[N+]4=C(c6ccc[nH]6)C=CC4=C5)cc3C2=O)CC1 [NAN-190-2-NB590] | 0.95 | 1.04 | 0.97 | 1.04 | 0.96 | 1.04 | 0.97 |  |  |  |  |  |  |  |  | 
COc1ccccc1N1CCN(CCCCN2C(=O)c3ccc(CNC(=O)CCOCCNC(=O)c4ccc(CNC(=O)CCc5ccc6n5[B-](F)(F)[N+]5=C(c7ccc[nH]7)C=CC5=C6)cc4)cc3C2=O)CC1 [NAN-190-3-NB590] | 0.95 | 1.13 | 1.02 | 0.92 | 1.05 | 1.15 | 0.84 | 0.91 |  |  |  |  |  |  |  | 
O=C(CCc1ccc2n1[B-](F)(F)[N+]1=C(c3ccc[nH]3)C=CC1=C2)NCc1ccc(C(=O)NCCOCCC(=O)N[C@@H]2CC[C@@]3(O)[C@H]4Cc5ccc(O)c6c5[C@@]3(CCN4CC3CC3)[C@H]2O6)cc1 [Naltrexone-3-NB590] | 0.94 | 1.10 | 0.62 | 0.92 | 1.25 | 1.14 | 0.72 | 0.90 |  |  |  |  |  |  |  | 
Cc1cc2c(s1)Nc1ccccc1N=C2N1CCN(CCCNC(=O)CCOCCOCCOCCOCCNC(=O)CCc2ccc3n2[B-](F)(F)[N+]2=C(c4ccc[nH]4)C=CC2=C3)CC1 [Olanzapine-a-2-NB590] | 1.03 | 0.98 | 1.09 | 0.86 | 0.95 | 0.97 | 0.99 | 1.09 |  |  |  |  |  |  |  | 
O=C(CCc1ccc2n1[B-](F)(F)[N+]1=C(c3ccc[nH]3)C=CC1=C2)NCc1ccc(C(=O)NCCOCCOCCNCC(O)COc2cccc3ccccc23)cc1 (stereo not shown) [Propranolol-3-NB590] |  |  |  |  |  |  |  |  | 1.06 | 1.01 | 0.90 | 0.97 | 1.04 | 1.02 | 1.00 | 0.98
O=C(CCc1ccc2n1[B-](F)(F)[N+]1=C(c3ccc[nH]3)C=CC1=C2)NCCOCCOCCNC(=O)OCCOCCN1CCN(C2=Nc3ccccc3Sc3ccccc32)CC1 [Quetiapine-a-2-NB590] | 1.01 | 1.15 | 0.98 | 0.95 | 1.08 | 1.05 | 0.96 | 0.99 |  |  |  |  |  |  |  | 
Cc1nc2n(c(=O)c1CCN1CCC(c3noc4cc(F)ccc34)CC1)CCCC2OC(=O)NCCOCCOCCOCCOCCNC(=O)CCc1ccc2n1[B-](F)(F)[N+]1=C(c3ccc[nH]3)C=CC1=C2 (stereo not shown) [Risperidone-2-NB590] | 1.01 | 1.10 | 1.03 | 0.90 | 0.98 | 1.02 | 0.96 | 1.07 |  |  |  |  |  |  |  | 
CC(C)N(CC[C@H](c1ccccc1)c1cc(CCNC(=O)CCOCCOCCOCCOCCNC(=O)CCc2ccc3n2[B-](F)(F)[N+]2=C(c4ccc[nH]4)C=CC2=C3)ccc1O)C(C)C [Tolterodine-2-NB590] | 0.83 | 0.88 | 1.26 | 1.28 | 0.99 | 0.87 | 1.27 | 1.10 |  |  |  |  |  |  |  | 
CC(C)N(CC[C@H](c1ccccc1)c1cc(CCNC(=O)c2ccc(CNC(=O)CCc3ccc4n3[B-](F)(F)[N+]3=C(c5ccc[nH]5)C=CC3=C4)cc2)ccc1O)C(C)C [Tolterodine-BZ-NB590] | 0.97 | 1.04 | 0.89 | 0.94 | 1.00 | 1.05 | 1.13 | 1.13 |  |  |  |  |  |  |  | 
CCCn1c(=O)c2[nH]c(-c3ccc(OCC(=O)NCCNC(=O)CCOCCNC(=O)c4ccc(CNC(=O)CCc5ccc6n5[B-](F)(F)[N+]5=C(c7ccc[nH]7)C=CC5=C6)cc4)cc3)nc2n(CCC)c1=O [XAC-3-NB590] | 0.95 | 1.05 | 1.00 | 1.03 | 1.01 | 0.98 | 1.08 | 0.78 |  |  |  |  |  |  |  | 

Source: PMC8151276, “An Integrated Approach toward NanoBRET Tracers for Analysis of GPCR Ligand Engagement” (Molecules, 2021)
